Reference: patent US4824941A, “Specific antibody to the native form of 2'5'-oligonucleotides, the method of preparation and the use as reagents in immunoassays or for binding 2'5'-oligonucleotides in biological systems” (priority 1988, dated 1989)
Each block holds one molecule with its values, some of them ahead of it.

Columns and labels:
[1] = target: specific antibody to 2'5'-oligo(A); assay: Competitive binding radio-immune assay (inhibition of binding of [32P]-labelled 2'5'A tetramer pCp probe to antibody, nitrocellulose filter); settings: 25 μl, 0°, 1 hr; [32P] 2'5'A tetramer pCp probe
Procedure: The titers of the antisera are determined from the reciprocal of the dilution which gives 50% retention of the radioactivity to a nitrocellulose filter. The antiserum dilution is incubated in 25 μl of 20 mM KOAc, 10 mM HEPES-KOH, pH 7.4, 1.5 mM Mg(OAc)2 containing 1 mg/ml bovine serum albumin (BSA) and 5-6000 cpm of [^32 P] terminally labelled 2'5'A tetramer pCp (Amersham International: specific activity, approximately 3000 Ci/mmole). After incubation at 0° for 1 hr, the mixtures are diluted with 3 ml of ice cold 90 mM KCl, 20 mM Tris-HCl, pH 7.6 and passed through 25 mm discs of nitrocellulose (Millipore, type HAWP, 0.45 μ) with a filtration apparatus. The filters are washed with a further 2 portions of the same buffer, and retained radioactivity counted by Cerenkov radiation in a scintillation counter.
In the simple radio-immune assay described in Example 2, the unknown is determined by dilution of the radioactivity bound from the constant amount of known radioactive probe. […] This inhibition is a measure of the affinity of the related compound for the antibody, and will also indicate to what extent such compounds might interfere with the assay, if present in the material being analysed. […] A collection of 2'5'-adenylates and related compounds were prepared as follows. The dimer, trimer, tetramer and pentamer were obtained from the DEAE-cellulose fractionation of example 1. The tetramer was partially digested with bacterial alkaline phosphatase and the products separated by high performance liquid chromatography on a Partisil SAX column (Whatman), with 10 mM potassium phosphate buffer, pH 6.8, 20% ethanol and a gradient from 10 to 500 mM KCl. Acetyl and succinyl derivatives of the tetramer were obtained by reaction with acetic and succinic anhydride, according to the method of Example 1. Other compounds were from commercial sources.

2'5'-oligo(A) synthetase [2] = assay: 2'5'-oligo(A) synthetase in 3T3 cells, conventional assay ([3H]-ATP to [3H]-2'5'-oligo(A)); type: cell-based, Swiss mouse; settings: 3T3 cells treated overnight; 10 μM prostaglandin F2α or 100 u/ml interferon; none 556, background (197)
Source text: (§1) Because of the extremely efficient reaction condition of cell-free systems, it is possible to assay low levels of 2'5'-oligo(A) synthetase. However, it is sometimes desirable to measure low levels from extremely small amounts of precious starting material. By coupling the extremely sensitive measurement of 2'5'-oligo(A) according to the methods of the present invention, with the enzymatic assay for 2'5'-oligo(A) polymerase, the enzyme can be determined with 10^5 -fold higher sensitivity than was previously possible. In the example, Swiss mouse 3T3 fibroblast cells are stimulated into a cell cycle by a variety of hormones and factors (for literature on this subject see the article "Criteria for the establishment of the biological significance of ribosomal protein phosphorylation" in Current Topics in Cellular Regulation, volume 21, 1982, pages 89-99, by J. Gordon, P. J. Nielsen, K. L. Manchester, H. Towbin, L. Jimenez de Asua and G. Thomas). […] One portion (198 μl) is analysed for conversion of the ATP to 2'5'-oligo(A) from the retention of radioactivity on an analytical DEAE cellulose column (see example 4). The other portion (2 μl) is diluted in the range 250 to 10,000-fold and the 2'5'-oligo(A) determined by the radioimmune assay (see example 3).

2'5'-oligo(A) synthetase [3] = assay: 2'5'-oligo(A) synthetase in 3T3 cells, radio-immune assay of reaction product; type: cell-based, Swiss mouse; settings: 3T3 cells treated overnight; 10 μM prostaglandin F2α or 100 u/ml interferon; none 50, background 0
Source text: as §1

[4] = tested on: Friend mouse erythroleukemia cells (N46AP); assay: 2'5'-oligo(A) levels in differentiating Friend erythroleukemia cells, clone N46AP; type: cell-based; settings: 1.4% (v/v) DMSO
Procedure: (§2) This is an example for cells growing in culture, but is universally applicable to any biological material: cell cultures, organs, tissues, bodily fluids such as blood, urine, cerebrospinal fluids, milk or any other suitably available material. Cells in a petri dish are rapidly washed with buffered saline (this step is dispensed with in the case of bodily fluids), then enough ice cold 5% trichloracetic acid (TCA) to cover the layer of cells (3 ml for a 7 cm diameter petri dish) and the dish is kept on ice for 5 min. The TCA and detached cells are removed and centrifuged to remove the insoluble material, and the dish and pellet are re-extracted with a similar volume of 5% TCA and the supernatants pooled. Alternatively, in the case of a cell suspension culture, the cells are pelleted by centrifugation at room temperature, the cells resuspended in a volume of buffered saline equal to the volume of the pellet, and approximately 10 volumes of 5% TCA are added. The insoluble material is removed by centrifugation and the pellet extracted with 1/2 the previous volume of 5% TCA. The supernatants are pooled. All operations with TCA are performed between 0° C. and 5° C. The pooled supernatants are freed of TCA by extraction with an equal volume of 30% (v/v) tri-N-octylamine in Freon 113 (Dow Chemicals). The upper aqueous phase is collected and the Freon phase re-extracted with 1/2 the preceeding volume of distilled water. Since biological material may contain ATP in the mM range, and it is desirable to measure 2'5'-oligo(A) in the nM range, it may be desirable to remove such 10^6 -fold excess of ATP, which might interfere with the assay. The ATP and other nucleotides which might interfere with the assay may then be removed chromatographically with DEAE cellulose (Whatman DE-52) equilibrated with 125 mM NH4 HCO3 (pH 7.8). The loading ratio is the same as for the preparative columns of example 1, but microcolumns of 200 μl are optimal for this analytical scale. The column is washed with 15 ml of the same buffer to remove the ATP and other unbound material. The 2'5'-oligo(A) is eluted with 2 ml of 0.5M NH4 HCO3, and the samples are lyophilized after addition of 1/10th volume of ethanol. The samples may be stored indefinitely in anhydrous form and re-dissolved with suitable volumes of solvent for the radio-immuno assay as described in example 3.
Friend mouse erythroleukemia cells can be induced to differentiate and become erythropoietic under the influence of a variety of reagents, especially dimethylsulfoxide. Such cells are also known to produce the enzyme 2'5'-oligo(A) synthetase. Before the method of the present invention, it was not possible to determine the 2'5'oligo(A) directly in these cells. The determination is described in this example. The Friend cells (clone FBU or N46AP) are grown in Dulbecco's modified Eagle's Medium containing 10% fetal calf serum, 2% (v/v) dimethylsulfoxide for FBU or 1.4% (v/v) DMSO for N46 AP and 1 mM glutamine. The cells are diluted with the same medium daily to maintain a density of 5.10^5 cells per ml. At various times, 30 ml cultures are collected and processed as described in the preceeding example. The lyophilized material is dissolved in the buffer corresponding to the reaction mixture for the assay, as in example 2, but containing 0.1 mg/ml of bovine serum albumin. The 2'5'-oligo(A) content is determined from the reduction of the binding of the [^32 P] labelled probe as in example 2 and 3.

[5] = tested on: Friend mouse erythroleukemia cells (FBU); assay: 2'5'-oligo(A) levels in differentiating Friend erythroleukemia cells, clone FBU; type: cell-based; settings: 2% (v/v) DMSO
Procedure: as §2, with “The ATP and other nucleotides which might interfere with the assay may then be removed chromatographically with DEAE cellulose (Whatman DE-52) equilibrated with 125 mM NH4 HCO3 (pH 7.8). The loading ratio is the same as for the preparative columns of example 1, but microcolumns of 200 μl are optimal for this analytical scale. The column is washed with 15 ml of the same buffer to remove the ATP and other unbound material. The 2'5'-oligo(A) is eluted with 2 ml of 0.5M NH4 HCO3, and the samples are lyophilized after addition of 1/10th volume of ethanol. The samples may be stored indefinitely in anhydrous form and re-dissolved with suitable volumes of solvent for the radio-immuno assay as described in example 3.” left out
Friend mouse erythroleukemia cells can be induced to differentiate and become erythropoietic under the influence of a variety of reagents, especially dimethylsulfoxide. […] The 2'5'-oligo(A) content is determined from the reduction of the binding of the [^32 P] labelled probe as in example 2 and 3.

2'5'-oligo(A) synthetase [6] = settings: source of value not given; read-out: Km of the enzyme; cited from earlier work

Molecule: CCCCC[C@H](O)/C=C/[C@@H]1[C@@H](C/C=C\CCCC(=O)O)[C@@H](O)C[C@H]1O [prostaglandin F2α]
[^3 H]-ATP→[^3 H]-2'5'-oligo(A) (2'5'-oligo(A) synthetase [2]): 632 cpm/assay | Radio-immune assay for 2'5'-oligo(A) (2'5'-oligo(A) synthetase [3]): 100 pmoles/assay

Molecule: pA(2'p5'A)3
amount giving 50% inhibition of the maximal binding of the [^32 P]-labelled probe [1]: 25 fmol

Molecule: Nc1ccn([C@@H]2O[C@H](COP(=O)(O)OP(=O)(O)OP(=O)(O)O)[C@@H](O)[C@H]2O)c(=O)n1 [CTP]
amount giving 50% inhibition of the maximal binding of the [^32 P]-labelled probe [1]: > 3,000,000 fmoles

Molecule: C[S+](C)[O-] [DMSO, dimethylsulfoxide]
2'5'-oligo(A) ([4]; day 1 post-DMSO (day 0: 7.5)): 7.8 fmoles/10^6 cells | 2'5'-oligo(A) ([4]; day 2 post-DMSO): 4.3 fmoles/10^6 cells | 2'5'-oligo(A) ([4]; day 3 post-DMSO): 17.5 fmoles/10^6 cells | 2'5'-oligo(A) ([4]; day 5 post-DMSO): 63 fmoles/10^6 cells | 2'5'-oligo(A) ([4]; day 6 post-DMSO): 53 fmoles/10^6 cells | 2'5'-oligo(A) ([5]; day 1 post-DMSO (day 0: 2.6)): 28 fmoles/10^6 cells | 2'5'-oligo(A) ([5]; day 2 post-DMSO): 28 fmoles/10^6 cells | 2'5'-oligo(A) ([5]; day 4 post-DMSO): 20 fmoles/10^6 cells

Molecule: Nc1ncnc2c1ncn2[C@@H]1O[C@H](COP(=O)(O)OP(=O)(O)OP(=O)(O)O)[C@@H](O)[C@H]1O [ATP]
Km (2'5'-oligo(A) synthetase [6]): ~1000 µM | amount giving 50% inhibition of the maximal binding of the [^32 P]-labelled probe [1]: > 3,000,000 fmoles

Molecule: Nc1ccn([C@@H]2O[C@H](COP(=O)(O)O)[C@@H](OP(=O)(O)O)[C@H]2O)c(=O)n1 [pCp]
amount giving 50% inhibition of the maximal binding of the [^32 P]-labelled probe [1]: > 3,000,000 fmoles

Molecule: 5'-(phospho)3 (adenylyl 2'-5')2 adenosine [pppA(2'p5'A)2]
amount giving 50% inhibition of the maximal binding of the [^32 P]-labelled probe [1]: 2.5 fmol

Molecule: O=c1ccn([C@@H]2O[C@H](COP(=O)(O)OP(=O)(O)OP(=O)(O)O)[C@@H](O)[C@H]2O)c(=O)[nH]1 [UTP]
amount giving 50% inhibition of the maximal binding of the [^32 P]-labelled probe [1]: > 3,000,000 fmoles

Second part, the molecule after the results:

amount giving 50% inhibition of the maximal binding of the [^32 P]-labelled probe [1]: > 3,000,000 fmoles
Molecule: Nc1nc2c(ncn2[C@@H]2O[C@H](COP(=O)(O)OP(=O)(O)OP(=O)(O)O)[C@@H](O)[C@H]2O)c(=O)[nH]1 [GTP]

amount giving 50% inhibition of the maximal binding of the [^32 P]-labelled probe [1]: > 3,000,000 fmoles
Molecule: NC(=O)C1=CN([C@@H]2O[C@H](COP(=O)(O)OP(=O)(O)OC[C@H]3O[C@@H](n4cnc5c(N)ncnc54)[C@H](O)[C@@H]3O)[C@@H](O)[C@H]2O)C=CC1 [NADH]

amount giving 50% inhibition of the maximal binding of the [^32 P]-labelled probe [1]: > 3,000,000 fmoles
Molecule: Nc1ncnc2c1ncn2[C@@H]1O[C@H](COP(=O)(O)O)[C@@H](O)[C@H]1O [AMP]

amount giving 50% inhibition of the maximal binding of the [^32 P]-labelled probe [1]: > 3,000,000 fmoles
Molecule: Nc1ncnc2c1ncn2[C@@H]1O[C@H](COP(=O)(O)OP(=O)(O)O)[C@@H](O)[C@H]1O [ADP]
